Measured values reported in article PMC12525431, “Hsp70 Peptides Induce TREM-1-Dependent and TREM-1-Independent Activation of Cytotoxic Lymphocytes” (International Journal of Molecular Sciences, 2025).
Entries after “also recorded” stand apart in the source; their conditions may differ. Read-outs that look alike come from different tables or passages of the source. Ends that are not written are not given here.

Experiments:
TREM-1 [1] = target: T1, TREM-1 (Homo sapiens, UniProt Q9NP99); assay: Microscale thermophoresis, binding to TREM-1; conditions: sTREM-1 labeled with Alexa Fluor 488, 30 min in the dark at room temperature, 16 concentrations by sequential dilution, Monolith NT 115, 8% IR laser power, at least three replicates
T1 construct: causes dissociation of the TREM-1 exocellular domain; made in house
T1 sequence (Q9NP99 21-205 limits assumed): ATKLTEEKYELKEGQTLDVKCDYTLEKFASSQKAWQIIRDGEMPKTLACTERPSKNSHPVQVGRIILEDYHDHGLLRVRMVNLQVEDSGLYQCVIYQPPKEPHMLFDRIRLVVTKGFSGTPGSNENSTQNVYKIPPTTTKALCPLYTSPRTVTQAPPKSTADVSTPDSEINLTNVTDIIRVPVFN
Protocol: The purified sTREM-1 protein was labeled using an Alexa FluorTM 488 Protein Labeling Kit (Life Technologies Corporation, Eugene, OR, USA) in accordance with the manufacturer’s protocol.
The N7 peptide and TKD (C = 200 nM for all) were incubated for 30 min in the dark at room temperature in 16 different concentrations obtained through sequential dilution, starting with the highest soluble concentration. The samples were transferred to glass capillaries (Monolith NT Capillaries, NanoTemper Technologies GmbH, München, Germany) and then analyzed using a Nano-Temperature Monolith NT 115 device (8% IR laser power). The signal quality was monitored using a NanoTemper Monolith device to detect possible autofluorescence of the ligand, aggregation, or changes in the photobleaching rate. The experiments were carried out in at least three replicates and processed using affinity analysis software (MO Control v.1.6.1, NanoTemper Technologies GmbH, München, Germany).

K562 cells = assay: Cytotoxicity of activated PBMC/lymphocytes against K562 cells (Cytotox 96); assay type: cell-based, human
Protocol: (§1) Human leukemic cell line K562 and THP-1 cell line were cultured in RPMI-1640 (Himedia Laboratories Private Limited, Maharashtra, India) and 10% FCS (Cytiva Livescience™, Marlborough, MA, USA). This cell line was obtained from the cell line collection of N. N. Blokhin National Medical Research Center of Oncology of the Ministry of Health of Russia. […] The cells were sorted using sets of magnetic beads for isolation of CD14+, CD16+, CD56+, CD8+, and CD4+ according to the manufacturer’s protocol (all were produced by Thermo Fisher Scientific, Waltham, MA, USA).
(§2) For cytotoxicity tests, cells of the K562 line were cultured in 96-well plates (Guangzhou Jet Bio-Filtration Co., Guangzhou, China) (6 × 10^4 per well) mixed with lymphocytes added at a 20:1 ratio and incubated at 37 °C in a 5% CO2 atmosphere for 3 to 24 h). In the inhibition assays, cells were pre-incubated for 1 h with the LP17 ([…]) (Thermo Fisher Scientific, Boston, MA, USA), abTREM1 (ABclonal, Woburn, MA, USA), anti-NKG2D, anti-granzyme B, caspase 3 inhibitor Ac-IEID-CHO, RIP1 kinase inhibitor necrostatin1, TLR4 inhibitor, anti-MicA, anti-FasL, anti-CD94 antibody (concentration was 20 μg/mL for all inhibitors and all from Thermo Fisher Scientific, Waltham, MA, USA) and then the lymphocytes were added.
(§3) Cytotoxicity was measured using a Cytotox 96 analysis kit (Promega, Madison, WI, USA) after 24 h of incubation in accordance with the manufacturer’s protocol.

CD94 receptor = assay: Interaction with CD94 receptor (judged from PBMC cytotoxicity); assay type: cell-based, human; conditions: concluded from cytotoxicity experiments
Protocol: as §1
For cytotoxicity tests, cells of the K562 line were cultured in 96-well plates (Guangzhou Jet Bio-Filtration Co., Guangzhou, China) (6 × 10^4 per well) mixed with lymphocytes added at a 20:1 ratio and incubated at 37 °C in a 5% CO2 atmosphere for 3 to 24 h). […]
as §3

TREM-1 [2] = target: T1, TREM-1; assay: Interaction with / dependence on TREM-1 (judged from cytotoxicity blocking and binding experiments); assay type: cell-based; conditions: for effect on interaction of TREM-1 with its ligands: ligands N7 peptide, HMGB1, full-length Hsp70, judged from PBMC cytotoxicity
Protocol: as §1, §2, §3

TREM-1 [3] = target: T1, TREM-1; conditions: cited from earlier work
HLA-negative tumor cells = conditions: cited from earlier work
ICR mice = assay: LPS-induced sepsis in mice, survival; assay type: in vivo; conditions: N7.1 120 µg per mouse i.v. 1 h after LPS
Protocol: Female ICR mice weighing 25 ± 1.1 g (7-week-old) were obtained from the Animal Breeding Facility of IBCh RAS (Bioresource Collection supported by the Ministry of Science and Higher Education of the Russian Federation, contract No. 075-15-2025-486). During the experiment, all mice were maintained in a specific pathogen-free (SPF) state under a strict light cycle (lights on at 07:00 h and off at 19:00 h), at 22 ± 2 °C and 50 ± 10% relative humidity. Animals were provided ad libitum access to a standard laboratory autoclavable rodent diet.
Twenty-one mice were used for the present study. The animals were randomly assigned to three groups with seven animals in each group: (1) control, intact animals; (2) intravenous injection of physiological saline (100 μL 0.9% NaCl) as a placebo during LPS-induced sepsis; (3) intravenous injection of peptide N7.1 (120 µg in 100 µL saline per mouse) during LPS-induced sepsis. LPS-induced sepsis was stimulated by an intraperitoneal injection of 0.6 mg lipopolysaccharides from Salmonella enterica Serotype Typhimurium (Sigma-Aldrich Co., St. Louis, MO, USA). Due to the small fluctuation in animal weight, weight-based dosing of LPS was not used. Drug treatment (saline or peptide N7.1) was carried out 1 h after LPS-induced sepsis.

[4] = 4th day of PBMC incubation with N7, magnetic separation, K562, n = 5
[5] = 6th day of PBMC incubation with N7, magnetic separation, K562, n = 5

## CC(C)C[C@H](NC(=O)[C@H](CC(C)C)NC(=O)[C@H](CC(N)=O)NC(=O)[C@H](CC(N)=O)NC(=O)[C@H](CC(=O)O)NC(=O)[C@H](CCCCN)NC(=O)[C@@H](N)[C@@H](C)O)C(=O)NCC(=O)N[C@@H](CCCNC(=N)N)C(=O)N[C@@H](Cc1ccccc1)C(=O)N[C@@H](CCC(=O)O)C(=O)N[C@@H](CC(C)C)C(=O)N[C@@H](CO)C(=O)NCC(=O)O [TKD]
TREM-1 [1]
  Kd: 3 µM

## CN1C(=O)C(Cc2c[nH]c3ccccc23)NC1=S (centres unmarked) [inhibitor of RIP1 kinase, necrostatin1, reference compound]
K562 cells; CD8+ and CD4+ T lymphocytes activated by N7, 6 days, inhibitor pre-incubated 1 h (20 μg/mL), K562 3 or 24 h, n = 5
  effect of inhibitor on cytotoxic signal: prevent the induction of cytotoxic signal

## AMTKDNNLLGR [N9, 11-membered peptide from fraction No. 9; can be considered as a shortened TKD peptide]
K562 cells; human PBMC ex vivo with peptide, K562 target cells
  lymphocyte populations activated: activates CD94+ NK cells
CD94 receptor
  interaction with CD94 receptor: interact with the CD94 receptor
TREM-1 [2]; concluded from LP17 blocking and binding experiments
  interaction with TREM-1: does not interact with the TREM-1 receptor

## Ac-IEID-aldehyde [caspase 3 inhibitor, reference compound]
K562 cells; NK cells activated by N7, inhibitor pre-incubated 1 h (20 μg/mL), K562, n = 5
  effect of inhibitor on activity of NK cells: blocked

## Hsp70: recombinant human Hsp70, expressed in Escherichia coli M15
TREM-1 [3]; ref [19]
  TREM-1 ligand: ligand of the TREM-1 innate immunity receptor
HLA-negative tumor cells
  activation of cytotoxic lymphocytes: activates TREM-1-dependent and TREM-1-independent cytotoxic lymphocytes that kill HLA-negative tumor cells

## LQVTDSGLYRCVIYHPP [LP17, reference compound]
TREM-1 [3]; ref [24]
  TREM-1 signaling inhibition: TREM-1 signaling inhibitor

## PGLYRP1: innate immunity protein PGLYRP1, TREM-1 ligand
TREM-1 [3]; ref [30],[31],[32],[33]
  TREM-1 ligand: TREM-1 ligands

## SDNQPGVL [N7.1, N-terminal fragment of N7 peptide]
K562 cells; PBMC pre-incubated with shortened peptide, then N7 peptide, HMGB1 or Hsp70 for 6 days, K562 24 h
  effect on lymphocyte activation by TREM-1 ligands: blocks the activation of lymphocytes by all the ligands studied
ICR mice; LPS-induced sepsis in mice
  effect in development of sepsis: protective effects in the development of sepsis in mice
ICR mice; female ICR mice, n = 7, 0.6 mg S. enterica LPS i.p., observed to 120 h, saline 29%
  surviving animals (survival rate): 86%
TREM-1 [2]
  effect on interaction of TREM-1 with its ligands: inhibits the interaction of TREM-1 with its ligands; also recorded: prevent interaction of the TREM-1 receptor with its ligands in vitro
TREM-1 [2]; listed as SDNQPGVL
  effect on interaction of TREM-1 with its ligands: competes with other ligands

## SDNQPGVLIQVYEGEK [N7]
K562 cells; [4]
  cytotoxic activity of CD4+ T lymphocytes: activated
  cytotoxic activity of CD8+ T lymphocytes: No traces of cytotoxic activity
  cytotoxic activity of NK cells: reached their maximum activity
K562 cells; [5]
  cytotoxic activity of CD4+ T lymphocytes: remained
  cytotoxic activity of CD8+ T lymphocytes: appeared
  cytotoxic activity of NK cells: completely disappeared
K562 cells; PBMC 6 days with synthetic peptide (10^−9 M), MHC-negative K562 cells 24 h, n = 5
  induction of cytotoxic lymphocytes: cytotoxic lymphocytes appear in the population, killing MHC-negative K562 tumor cells

## actin
TREM-1 [3]; ref [30],[31],[32],[33]
  TREM-1 ligand: TREM-1 ligands
